{"source": "patent US20240299334A1", "about": "“PHARMACEUTICAL COMPOSITION OF NAPHTHALENE DERIVATIVES AS MULTI-TARGETED THERAPEUTIC AGENTS FOR THE TREATMENT OF ALZHEIMER'S DISEASE” (CENTRO DE NEUROCIENCIAS DE CUBA, CNEURO, priority 2020, published 2024)", "key": {"[1]": {"tested_on": "memory loss induced by an acute administration of scopolamine (ESC)", "assay": "Y-maze, short-term spatial memory, acute scopolamine (ESC) model", "format": "in vivo, mice", "description": "Young male OF-1 mice (20-25 g), supplied by the National Center for the Laboratory Animals Production (CENPALAB, Cuba), were used. Before the experiment, the animals were adapted for seven days to laboratory conditions (controlled temperature 25±2° C., relative humidity 60±10% and light/dark cycles of 12 h). During this period, and during the experiment, the animals received ad libitum water and a standard diet for rodents supplied by CENPALAB. All procedures were carried out in accordance with the European Commission guidelines for the use and care of laboratory animals and approved by the Committee for the Care of Research Animals. The minimum number of animals and duration of observations required to obtain consistent data was used.\nAt the end of the adaptation period, the animals were randomly distributed according to their body weights in 5 experimental groups of 12 animals per group. Scopolamine hydrobromohydrate (ESC, Sigma Aldrich) was used to induce cognitive deficit, which was dissolved in physiological saline and administered intraperitoneally (ip) at a dose of 1.5 mg/kg, 30 minutes before the test (Miranda H F et al. in. J. Biomed. Sci., 2014 21 (1): 62-62). The doses of compound 3 used were 0.1, 1, 10 and 20 mg/kg of body weight. The compound was formulated using carboxymethyl cellulose (CMC). The administration scheme was designed as follows:\nGroup 1 (negative control) with normal cognitive function. Two administrations with an interval of 30 minutes with vehicle (5% CMC) by oral route and saline solution by i.p. route, respectively.\nGroup 2 (positive control) with cognitive dysfunction. Two administrations with an interval of 30 minutes, the first with vehicle (5% CMC), the second with ESC 1 mg/kg.\nGroup 3, 4, 5 and 6 treated with 3 (0.1, 1, 10 and 20 mg/kg). Two administrations with an interval of 30 minutes, the first with 3 at the dose corresponding to each group, the second with ESC 1 mg/kg. The behavioral evaluation was carried out 30 minutes after this second administration.\nThe study of short-term spatial memory was carried out through the study of novel spatial preference, using the Y-maze behavioral paradigm (40 cm long×9 cm wide×16 cm high) with extra-labyrinthine tracks around of the maze. The test consisted of two trials separated by an interval of 2 hours. In the first training test (acquisition), the mice were placed in the center of the maze and facing the end of one of the arms whose selection was random. After being positioned, they were allowed to explore the maze for 10 minutes with one of the arms closed (novel arm). At the end of this test, the mice were returned to their original cage until the second test (recovery), during which they could freely explore the three arms of the maze for 5 minutes. The total residence time (exploration) in each arm was measured and analyzed from video recordings. The entrance to the arm was defined as the entrance of the four legs of the animal in said arm. The residence time (sec) in each arm during the recovery test of the learned task was used for the statistical analysis. The maze was cleaned with 70% ethanol between runs. All mice were transported to the behavioral testing room in their home cages at least 1 day prior to testing. The experiments were carried out between 8:00 am and 12:30 pm.\nAll data are expressed as the mean±standard error of the mean (SEM). The Morris water maze data was analyzed in two ways. Escape latencies in the visible platform training phase were analyzed using a two-factor ANOVA (treatment×trial). For the study of long-term memory, the last escape latency value of the training phase with the visible platform (D1 V4) and the first value of the test with the hidden platform performed 24 h later (D2T1) were used. Mice with intact long-term memory capacity should quickly reach the hidden platform in the first test. A scoring system was generated with the difference D2T1−D1 V4 and with the ratio D2T1/D1V4. […]"}, "[2]": {"tested_on": "mitochondria isolated from rat liver", "assay": "Mitochondrial swelling induced by Ca2+ and Pi (absorbance 540 nm)", "format": "biochemical", "settings": "induced by 50 μmol/L Ca2+ and 2 mmol/L Pi; similar concentrations (0.1-100 μmol/L)", "text": "In this case, it was observed that in the control group (in the presence of Ca^2+) the maximum absorbance values are shown, as a measure of maximum swelling. […] These effects correspond to the observed effects on the dissipation of the mitochondria membrane potential.\nIsolation of rat mitochondria: Mitochondria were isolated by the classical method of differential centrifugation from the liver of male Wistar rats (Mirandola S R, et al., in J Neurosci Res 2010; 88: 630-39). […]\n(§1) Mitochondrial membrane potential and ROS were determined by spectrophotometry, using as fluorescent probes, respectively, safranin (10 μmol/L) (Zanotti A., and Azzone G F in Archives of Biochemistry and Biophysics 1980, 201 (1), 255-265) and Amplex Red (Molecular Probes, OR, Eugene) in the presence of horseradish peroxidase (1 IU/mL) (Votyakova and Reynolds, in J Neurochem. 2001, 79 (2), 266-77). Measurements were made in a Hitachi fluorescence spectrophotometer, model F-4500 (Tokyo, Japan) at λexc 495/λem 586 nm (safranin) and at λexc 563/λem 587 nm (Amplex Red). […]\nData analysis: In all cases, the normal distribution and homogeneity of variances of the data were evaluated using the Kolmogorov Smirnov and Levene tests, respectively. […]"}, "[3]": {"tested_on": "mitochondria isolated from rat liver", "assay": "Production of H2O2 / reactive oxygen species (Amplex Red) in isolated mitochondria", "format": "biochemical", "settings": "dose range tested (0.1-100 μmol/L)", "description": "Isolation of rat mitochondria: Mitochondria were isolated by the classical method of differential centrifugation from the liver of male Wistar rats (Mirandola S R, et al., in J Neurosci Res 2010; 88: 630-39).\nIncubation procedures: Mitochondria were energized with 5 mmol/L potassium succinate (plus 2.5 μmol/L rotenone) in standard incubation medium containing 125 mmol/L sucrose, 65 mmol/L KCl and 10 mmol/L of HEPES-KOH, pH 7.4, at 30° C.\nas §1, with “Red). These experiments were carried out in the presence of 0.1 mmol/L of EGTA and the evaluated compound was N-[4-(1-naphthylamino)-4-oxobutanoyl]-β-alanine (1) in a concentration range of 0.1 to 100 μmol/L. Mitochondrial swelling was estimated spectrophotometrically from the decrease in absorbance at 540 nm, using a Hitachi spectrophotometer, Model U-2910 (Japan).” for “Red).”"}}, "data": [{"smiles": "CN1[C@@H]2C[C@@H](OC(=O)[C@H](CO)c3ccccc3)C[C@H]1[C@@H]1O[C@@H]12", "note": "[ESC, Scopolamine hydrobromohydrate, reference compound]", "values": [{"measurement": "residence time in the novel arm", "setting": "[1]; ESC group (control group 133.8±9.3 sec), p<0.001", "result": "98.8 ± 4.2", "unit": "s"}]}, {"smiles": "O=C(O)CCNC(=O)CCC(=O)Nc1cccc2ccccc12", "note": "[compound 1, N-[4-(1-naphthylamino)-4-oxobutanoyl]-β-alanine]", "values": [{"measurement": "mitochondrial swelling (absorbance at 540 nm)", "setting": "[2]", "result": "reverses the effect of Ca^2+-induced swelling"}, {"measurement": "production of hydrogen peroxide (H2O2)", "setting": "[3]", "result": "protects against H2O2 production"}]}, {"smiles": "COc1cc2c(cc1OC)C(=O)C(CC1CCN(Cc3ccccc3)CC1)C2", "note": "(centres unmarked) [donepezil, reference compound]", "values": [{"measurement": "deficit induced by ESC in Y-maze", "setting": "[1]; donepezil 1 mg/kg, ip, 30 minutes before the test", "result": "also reversed the deficit induced by ESC"}, {"measurement": "residence time in the novel arm", "setting": "[1]; donepezil group vs ESC", "result": "significantly longer than that of ESC"}]}]}
